# Measurements: patent publication US9808470B2, “Estrogenic components for use in the treatment of neurological disorders” (UNIVERSITE DE LIEGE, priority 2012, dated 2017)
# How the values were obtained:
# Format in all cases: in vivo
# [1] = test system: O4-positive cells; assay: Ex.6 IL-1β induced diffuse white matter injury mouse model: pre-oligodendrocyte maturation gene expression (qRT-PCR); settings: P5
# Protocol: Experimental protocols were approved by the institutional guidelines of the Institut National de la Santé et de la Recherche Scientifique (Inserm, France), and met the guidelines for the United States Public Health Service's Policy on Humane Care and Use of Laboratory Animals (NIH, Bethesda, Md., USA). Experiments were performed using OF1 strain mice purchased from Charles River (L'Arbresle, France) and born in our animal facility. Animals were housed under a 12 h light-dark cycle, had access to food and water ad libitum. Sex was determined at birth and confirmed at sacrifice. To avoid any potential variability linked to sex to differences. only male pups were used. […]
# Preparation of samples for quantitative reverse-transcriptase polymerase-chain reaction (qRT-PCR), primer design, and PCR protocol, were similar to that previously described (Favrais et al., 2011; Chhor et al., 2013). […] RNA quality and concentration were assessed by spectrophotometry with the Nanodrop™ apparatus (Thermoscientific, Wilmington, Del., USA). […] The relative quantities are expressed as the specific ratio between the gene of interest and Rpl13 or GAPDH. The data are presented as relative mRNA units with respect to control values (expressed as a fold-difference with respect to the mean of sham values).
# [2] = test system: vascular endothelial growth factor (VEGF); assay: Ex.4 therapeutic HIE rat model: VEGF staining
# Protocol: The sections were heated in 10 mmol/L citrate buffer (pH 6.0) at 100° C. for 10 minutes. Endogenous peroxidase activity was blocked with 3% hydrogen peroxide for 10 minutes and after a second blocking with 5% normal goat serum, the sections were incubated with anti-doublecortin (DCX) antibody, diluted 1:1000 (rabbit polyclonal antibody; Abcam, Cambridge, UK) and anti-vascular endothelial growth factor (VEGF) antibody, diluted 1:100 (mouse monoclonal antibody; Abcam, Cambridge, UK) overnight at 4° C. After rinsing, Alexa Fluor® goat anti-rabbit, diluted 1:1000 and Alexa Fluor® goat anti-mouse, diluted 1:1000 (Invitrogen Inc., Ghent, Belgium) were added and sections were incubated 1 h at room temperature. Mounting medium containing 4′,6-diamidino-2-phenylindole (DAPI) for fluorescent studies was used (Vector Laboratories). Samples were analyzed with the aid of a microscope (Olympus Vanox AHBT3, Olympus), and the ImageJ software (NIH). The percentage of positively stained cells was quantified as a sum of positively stained either DCX or VEGF cells divided by the total number of DAPI positive cells expressed in percentage.
# (§1) To study the therapeutic effect of estetrol, newborn rat pups were assigned to one of the following 6 groups at postnatal day 7: sham group (n=29), vehicle group (n=20), 1 mg/kg E4 group (n=16), 5 mg/kg E4 group (n=19), 10 mg/kg day E4 (n=17) and 50 mg/kg day E4 group (n=15). At postnatal day 7 animals were anesthetized with isoflurane (induction, 3.0%; maintenance, 1.5%), and the rat pups from vehicle and E4 groups passed through surgery encompassing left common carotid artery double ligation and cut. After surgery, the pups were returned to their dams and allowed to recover for 1 hour. The pups were then placed in a humidified hypoxic in vivo cabinet (CoyLab). Hypoxia was produced by the inhalation of 11%-8% of oxygen balanced by nitrogen at decreased concentration of oxygen for 20 minutes, followed by inhalation of 8% oxygen and 92% nitrogen at constant concentration for 35 minutes. All the manipulations were performed at 37° C.
# Upon retrieval from the hypoxia chamber the rat pups were injected intraperitoneally either by vehicle (vehicle group) or by E4 (1 mg/kg, 5 mg/kg, 10 mg/kg or 50 mg/kg) in accordance to the group assignment. The animals from the sham group went through similar procedures but proceeded neither left common carotid artery ligation and cut followed by hypoxia nor vehicle or estetrol administration. Rat pups recovered with their dams until being sacrificed at postnatal day 14.
# [3] = test system: glial fibrillary acidic protein (GFAP); assay: Ex.4 therapeutic HIE rat model: blood serum GFAP ELISA; settings: estetrol treated animals (1, 5, 10, 50 mg/kg single ip dose after HI); PND14; vs vehicle
# Protocol: Blood was withdrawn, centrifuged and the serum samples were stored at −80° C.
# ELISAs for detecting the brain damage markers S100B protein (Catalog# CSB-E08066r, Cusabio Biotech Co., LTD, China), and glial fibrillary acidic protein (GFAP) (Catalog# E90068Ra, Uscn Life sciences Inc., China) in blood serum samples were performed according to the manufacturers' recommendations.
# as §1, with “C. […]” for “C.”
compound,measurement,setting,value
"C[C@]12CC[C@@H]3c4ccc(O)cc4CC[C@H]3[C@@H]1[C@@H](O)[C@@H](O)[C@@H]2O [E4, 1,3,5(10)-estratrien-3,15α,16α,17β-tetrol]",IL-1β-induced up-regulation in ID2 expression,[1]; 5 mg/kg and 10 mg/kg E4 co-treatment,prevented
same,expression of Hey2,"[1]; IL-1β+E4 5 mg/kg, vs IL-1β alone",trend to up-regulation
same,percentage of VEGF positively stained cells,"[2]; 5 mg/kg E4 single ip dose after HI, CA1",37.4±4.833%
same,percentage of VEGF positively stained cells,"[2]; 10 mg/kg E4 single ip dose after HI, CA1",37.1±3.84%
same,percentage of VEGF positively stained cells,"[2]; 10 mg/kg E4 single ip dose after HI, cortex",49.4±4.949%
same,percentage of VEGF positively stained cells,"[2]; 50 mg/kg E4 single ip dose after HI, CA1",45.1±4.753%
same,percentage of VEGF positively stained cells,"[2]; E4 1, 5, 10, 50 mg/kg single ip dose after HI, CA2/CA3, between study groups",not significantly different between the study groups
same,VEGF staining,"[2]; E4 1, 5, 10, 50 mg/kg single ip dose after HI, DG, among study groups",neither DCX nor VEGF staining was significantly different
same,expression of GFAP protein in blood serum,[3],significantly lower expression
